ChEMBL document CHEMBL4396865, “Current advances of triazole alcohols derived from fluconazole: Design, in vitro and in silico studies” (2019)
≈ marks a conversion by molar mass, not a printed value.

Tests used:
Type in all cases: functional
Pichia kudriavzevii [1] = test: Antifungal activity against Candida krusei CK8
Candida parapsilosis [2] = test: Antifungal activity against Candida parapsilosis CAPA2
Pichia kudriavzevii [3] = test: Antifungal activity against Candida krusei CK506
Aspergillus fumigatus [4] = test: Antifungal activity against Aspergillus fumigatus AF98003
Candida parapsilosis [5] = test: Antifungal activity against Candida parapsilosis CAPA1
Candida albicans [6] = test: Antifungal activity against Candida albicans CAAL-74
Nakaseomyces glabratus = test: Antifungal activity against Candida glabrata CG468
Candida albicans [7] = test: Antifungal activity against Candida albicans CA98001
Candida albicans [8] = test: Antifungal activity against Candida albicans DSY735
Candida parapsilosis [9] = test: Antifungal activity against fluconalzole-susceptible Candida parapsilosis after 24 hrs; conditions: Lodderomyces parapsilosis
Candida albicans [10] = test: Antifungal activity against fluconalzole-susceptible Candida albicans after 24 hrs
Cryptococcus neoformans = test: Antifungal activity against Cryptococcus neoformans; conditions: Cryptococcus neoformans
Aspergillus fumigatus [11] = test: Antifungal activity against Aspergillus fumigatus; conditions: Aspergillus fumigatus
Trichophyton rubrum = test: Antifungal activity against Trichophyton rubrum; conditions: Trichophyton rubrum
Candida parapsilosis [12] = test: Antifungal activity against Candida parapsilosis; conditions: Lodderomyces parapsilosis
Candida tropicalis = test: Antifungal activity against Candida tropicalis; conditions: Candida tropicalis
Candida albicans [13] = test: Antifungal activity against Candida albicans ATCC 76615 after 24 hrs by microbroth dilution method; conditions: ATCC 76615, 24 h
Candida albicans [14] = test: Potency index, ratio of fluconazole MIC to test compound MIC for Candida albicans
Candida albicans [15] = test: Antifungal activity against Candida albicans; conditions: Candida albicans
Kluyveromyces marxianus = test: Antifungal activity against Candida kefyr; conditions: Kluyveromyces marxianus
[16] = Pichia kudriavzevii, CK8, read-out: MIC
[17] = Lodderomyces parapsilosis, CAPA2, read-out: MIC
[18] = Pichia kudriavzevii, CK506, read-out: MIC
[19] = Lodderomyces parapsilosis, CAPA1, read-out: MIC
[20] = Candida albicans, CAAL-74, read-out: MIC
[21] = Nakaseomyces glabratus, CG468, read-out: MIC
[22] = Candida albicans, CA98001, read-out: MIC
[23] = Candida albicans, DSY735, read-out: MIC

| Structure (SMILES) | MIC (Aspergillus fumigatus [4]) [µg/mL] | MIC80 (Cryptococcus neoformans) [µM] | MIC80 (Aspergillus fumigatus [11]) [µM] | MIC80 (Trichophyton rubrum) [µM] | MIC80 (Candida parapsilosis [12]) [µM] | MIC80 (Candida tropicalis) [µM] | MIC80 (Candida albicans [13]) [µM] | Ratio (Candida albicans [14]) | MIC80 (Candida albicans [15]) [µM] | MIC80 (Kluyveromyces marxianus) [µM] | also measured |
| --- | --- | --- | --- | --- | --- | --- | --- | --- | --- | --- | --- |
| CN(Cc1ccc(-c2ccc(C#N)cc2)cc1)CC(O)(Cn1cncn1)c1ccc(F)cc1F (stereo not given) | 2.76 (≈ 6.01 µM) | – | – | – | – | – | – | – | – | – | MIC (Pichia kudriavzevii [1]): 0.001 to 1.32 µg/mL; MIC (Candida parapsilosis [2]): 0.001 to 1.32 µg/mL; MIC (Pichia kudriavzevii [3]): 0.001 to 1.32 µg/mL; MIC (Candida parapsilosis [5]): 0.001 to 1.32 µg/mL; MIC (Candida albicans [6]): 0.001 to 1.32 µg/mL; MIC (Nakaseomyces glabratus): 0.001 to 1.32 µg/mL; MIC (Candida albicans [7]): 0.001 to 1.32 µg/mL; MIC (Candida albicans [8]): 0.001 to 1.32 µg/mL |
| CN(Cc1ccc(S(N)(=O)=O)cc1)CC(O)(Cn1cncn1)c1ccc(F)cc1F (stereo not given) | 0.767 to 3.57 (≈ 1.75 to 8.16 µM) | – | – | – | – | – | – | – | – | – | MIC (Pichia kudriavzevii [1]; [16]): 0.001 to 0.069 µg/mL (≈ 0.00229 to 0.158 µM); MIC (Candida parapsilosis [2]; [17]): 0.001 to 0.069 µg/mL (≈ 0.00229 to 0.158 µM); MIC (Pichia kudriavzevii [3]; [18]): 0.001 to 0.069 µg/mL (≈ 0.00229 to 0.158 µM); MIC (Candida parapsilosis [5]; [19]): 0.001 to 0.069 µg/mL (≈ 0.00229 to 0.158 µM); MIC (Candida albicans [6]; [20]): 0.001 to 0.069 µg/mL (≈ 0.00229 to 0.158 µM); MIC (Nakaseomyces glabratus; [21]): 0.001 to 0.069 µg/mL (≈ 0.00229 to 0.158 µM); MIC (Candida albicans [7]; [22]): 0.001 to 0.069 µg/mL (≈ 0.00229 to 0.158 µM); MIC (Candida albicans [8]; [23]): 0.001 to 0.069 µg/mL (≈ 0.00229 to 0.158 µM) |
| OC(Cn1cncn1)(Cn1cnc(SCc2ccc(Cl)cc2Cl)n1)c1ccc(F)cc1F (stereo not given) | – | – | – | – | – | – | – | – | – | – | MIC (Candida parapsilosis [9]): 0.063 to 1 µg/mL (≈ 0.127 to 2.01 µM); MIC (Candida albicans [10]): 0.063 to 1 µg/mL (≈ 0.127 to 2.01 µM) |
| OC(CN1CCC(OCc2ccc(Cl)c(Cl)c2)CC1)(Cn1cncn1)c1ccc(F)cc1F (stereo not given) | – | 0.01 to 2.33 (≈ 0.00497 to 1.16 µg/mL) | 0.55 to 2.33 (≈ 0.274 to 1.16 µg/mL) | 0.03 to 0.15 (≈ 0.0149 to 0.0746 µg/mL) | 0.01 to 2.33 (≈ 0.00497 to 1.16 µg/mL) | 0.01 to 2.33 (≈ 0.00497 to 1.16 µg/mL) | 0.01 to 2.33 (≈ 0.00497 to 1.16 µg/mL) | 82 | 0.01 (≈ 0.00497 µg/mL) | 0.01 to 2.33 (≈ 0.00497 to 1.16 µg/mL) | – |
| OC(CN1CCC(OCc2ccc(Cl)cc2Cl)CC1)(Cn1cncn1)c1ccc(F)cc1F (stereo not given) | – | 0.01 to 2.33 (≈ 0.00497 to 1.16 µg/mL) | 0.55 to 2.33 (≈ 0.274 to 1.16 µg/mL) | 0.03 to 0.15 (≈ 0.0149 to 0.0746 µg/mL) | 0.01 to 2.33 (≈ 0.00497 to 1.16 µg/mL) | 0.01 to 2.33 (≈ 0.00497 to 1.16 µg/mL) | 0.01 to 2.33 (≈ 0.00497 to 1.16 µg/mL) | 82 | 0.01 (≈ 0.00497 µg/mL) | 0.01 to 2.33 (≈ 0.00497 to 1.16 µg/mL) | – |
| N#Cc1ccc(COC2CCN(CC(O)(Cn3cncn3)c3ccc(F)cc3F)CC2)cc1 (stereo not given) | – | 0.01 to 2.33 (≈ 0.00453 to 1.06 µg/mL) | 0.55 to 2.33 (≈ 0.249 to 1.06 µg/mL) | 0.03 to 0.15 (≈ 0.0136 to 0.068 µg/mL) | 0.01 to 2.33 (≈ 0.00453 to 1.06 µg/mL) | 0.01 to 2.33 (≈ 0.00453 to 1.06 µg/mL) | 0.01 to 2.33 (≈ 0.00453 to 1.06 µg/mL) | 82 | 0.01 (≈ 0.00453 µg/mL) | 0.01 to 2.33 (≈ 0.00453 to 1.06 µg/mL) | – |
| OC(CN1CCC(OCc2cccc(Br)c2)CC1)(Cn1cncn1)c1ccc(F)cc1F (stereo not given) | – | 0.01 to 0.56 (≈ 0.00507 to 0.284 µg/mL) | 0.01 to 0.56 (≈ 0.00507 to 0.284 µg/mL) | 0.01 to 0.56 (≈ 0.00507 to 0.284 µg/mL) | 0.01 to 0.56 (≈ 0.00507 to 0.284 µg/mL) | 0.01 to 0.56 (≈ 0.00507 to 0.284 µg/mL) | 0.01 to 0.56 (≈ 0.00507 to 0.284 µg/mL) | 82 | 0.01 to 0.56 (≈ 0.00507 to 0.284 µg/mL) | 0.01 to 0.56 (≈ 0.00507 to 0.284 µg/mL) | – |
| CC(C)NS(=O)(=O)c1ccc(CN(C)CC(O)(Cn2cncn2)c2ccc(F)cc2F)cc1 (stereo not given) | 0.767 to 3.57 (≈ 1.6 to 7.44 µM) | – | – | – | – | – | – | – | – | – | MIC (Pichia kudriavzevii [1]; [16]): 0.001 to 0.069 µg/mL (≈ 0.00209 to 0.144 µM); MIC (Candida parapsilosis [2]; [17]): 0.001 to 0.069 µg/mL (≈ 0.00209 to 0.144 µM); MIC (Pichia kudriavzevii [3]; [18]): 0.001 to 0.069 µg/mL (≈ 0.00209 to 0.144 µM); MIC (Candida parapsilosis [5]; [19]): 0.001 to 0.069 µg/mL (≈ 0.00209 to 0.144 µM); MIC (Candida albicans [6]; [20]): 0.001 to 0.069 µg/mL (≈ 0.00209 to 0.144 µM); MIC (Nakaseomyces glabratus; [21]): 0.001 to 0.069 µg/mL (≈ 0.00209 to 0.144 µM); MIC (Candida albicans [7]; [22]): 0.001 to 0.069 µg/mL (≈ 0.00209 to 0.144 µM); MIC (Candida albicans [8]; [23]): 0.001 to 0.069 µg/mL (≈ 0.00209 to 0.144 µM) |
